# Assay results from ChEMBL document CHEMBL1133199, “Synthesis and uptake of nitric oxide-releasing drugs by the P2 nucleoside transporter in Trypanosoma equiperdum” (Bioorg Med Chem Lett, 2000).
# T1: Adenosine transporter 1 (Trypanosoma brucei, UniProt Q9Y0I0)
# T1 sequence (Q9Y0I0 whole entry): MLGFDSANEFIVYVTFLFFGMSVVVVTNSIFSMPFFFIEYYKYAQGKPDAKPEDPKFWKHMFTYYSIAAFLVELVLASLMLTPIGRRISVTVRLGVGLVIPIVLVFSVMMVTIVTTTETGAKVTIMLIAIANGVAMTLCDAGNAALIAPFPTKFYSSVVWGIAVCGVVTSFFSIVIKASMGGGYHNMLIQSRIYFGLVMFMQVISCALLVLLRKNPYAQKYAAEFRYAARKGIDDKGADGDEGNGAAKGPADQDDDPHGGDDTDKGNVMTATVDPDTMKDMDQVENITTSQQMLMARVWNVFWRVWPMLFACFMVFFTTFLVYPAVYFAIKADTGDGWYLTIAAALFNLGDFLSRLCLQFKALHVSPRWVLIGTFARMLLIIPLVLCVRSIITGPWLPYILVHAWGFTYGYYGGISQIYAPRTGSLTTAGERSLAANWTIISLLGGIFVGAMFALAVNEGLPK
# B1: Adenosine transporter 1 (Trypanosoma brucei), Q9Y0I0 (protein)
# chain: T1 sequence (Q9Y0I0 whole entry)
# Compound: Nc1ncnc2c1ncn2[C@@H]1O[C@H](CO)[C@@H](O)[C@H]1O
# Test: (§1) Compound was tested for inhibition of Adenosine transporter P2 type by using [2-3H]adenosine as radioligand in Trypanosoma equiperdum
row,Molecule,Km [µM]
1,B1,0.7

# Molecular target: T1, Adenosine transporter 1
# Test: as §1
row,Ki [µM],Molecule
1,0.58,CC(=O)NC(C(=O)Nc1ccc(Nc2nc(N)nc(N)n2)cc1)C(C)(C)SN=O (configuration not stated)
2,117,Nc1nc(N)c2c(no[n+]2[O-])n1
3,> 1000,CC(=O)N[C@@H](C(=O)O)C(C)(C)SN=O
4,12.3,Nc1ncnc2c1ncn2[C@@H]1O[C@H](CO[N+](=O)[O-])[C@@H](O)[C@H]1O
5,3.47,CC(=O)NC(C(=O)NC[C@H]1OC(n2cnc3c(N)ncnc32)[C@H](O)[C@@H]1O)C(C)(C)SN=O (some centres not stated)
6,0.62,CC(=O)NC(C(=O)NCCn1cnc2c(N)ncnc21)C(C)(C)SN=O (configuration not stated)
7,0.2,Nc1nc(N)nc(Nc2ccc(CCO[N+](=O)[O-])cc2)n1
8,404,CC(=O)NC(C(=O)Nc1ccc(N)nc1)C(C)(C)SN=O (configuration not stated)

row,Molecule,Ki [µM]
1,NCCS[As](SCCN)c1ccc(Nc2nc(N)nc(N)n2)cc1 [CYMELARSEN],22.9
2,Nc1ncnc2c1ncn2CCO[N+](=O)[O-],1.9
3,O=[N+]([O-])OCc1ccccc1,> 1000
